Experimental data as given in ChEMBL document CHEMBL1155460, “Prediction of acetylcholinesterase inhibitors and characterization of correlative molecular descriptors by machine learning methods” (Eur J Med Chem, 2010).

Target: Acetylcholinesterase (Homo sapiens, UniProt P22303)
Sequence (P22303 whole entry): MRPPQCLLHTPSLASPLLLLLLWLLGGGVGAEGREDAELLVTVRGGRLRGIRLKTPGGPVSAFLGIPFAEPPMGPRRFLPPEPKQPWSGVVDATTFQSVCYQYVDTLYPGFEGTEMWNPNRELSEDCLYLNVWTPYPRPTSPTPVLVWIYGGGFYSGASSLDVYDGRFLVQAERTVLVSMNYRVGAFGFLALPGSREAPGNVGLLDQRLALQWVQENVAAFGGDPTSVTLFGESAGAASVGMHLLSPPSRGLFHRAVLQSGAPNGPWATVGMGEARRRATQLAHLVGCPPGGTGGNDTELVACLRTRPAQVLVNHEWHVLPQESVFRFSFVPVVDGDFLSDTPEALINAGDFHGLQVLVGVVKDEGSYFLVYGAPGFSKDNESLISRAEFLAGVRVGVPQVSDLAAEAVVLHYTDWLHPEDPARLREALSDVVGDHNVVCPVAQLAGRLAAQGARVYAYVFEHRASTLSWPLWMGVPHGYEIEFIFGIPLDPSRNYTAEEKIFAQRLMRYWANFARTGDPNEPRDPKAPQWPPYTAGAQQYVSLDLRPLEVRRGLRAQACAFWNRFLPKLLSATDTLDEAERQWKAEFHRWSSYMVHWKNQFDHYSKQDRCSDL

SMILES | IC50 [nM]
Cn1cc(C(=O)NCCCCCCCNc2c3c(nc4cc(Cl)ccc24)CCCC3)c2ccccc21 | 10.9
CCN1CC[C@@]2(C)c3cc(OC(=O)NC(C)c4ccccc4)ccc3C[C@@H]12 (some centres undefined) | 1330
c1ccc(-c2nnc(NCN3CCCCC3)s2)cc1 | 54000
CN1CCCc2cc(C(=O)CCC3CCN(Cc4ccccc4)CC3)ccc21 | 24
COc1cccc(N(CCC2CCN(Cc3ccccc3)CC2)C(C)=O)c1 | 46
NCCCCCCCCCCNc1c2c(nc3ccccc13)CCCC2 | 147
O=C(C1CCCCC1)N(CCC1CCN(Cc2ccccc2)CC1)c1ccccc1 | 9400
c1ccc(-c2ccc(NCCCN3CCc4ccccc4C3)nn2)cc1 | 35000
CNC(=O)Oc1cccc(CN(C)CCCCCCCOc2ccc3c(c2)O/C(=C\c2cc(O)c(O)c(O)c2)C3=O)c1 | 0.52
O=C(CCC1CCN(Cc2ccccc2)CC1)c1ccc2c(c1)CCCN2 | 54
O=c1c2ccccc2ccn1CCC1CCN(Cc2ccccc2)CC1 | 1100
O=C(CCC1CCN(Cc2ccccc2)CC1)c1ccc2c(c1)NCC2 | 113
CN(CCOCCNC(=S)NC(=O)c1ccc2c(c1)C(=O)c1ccccc1C2=O)Cc1ccccc1 | 6
c1ccc(-c2cc(-c3ccccc3)c(NCCN3CCOCC3)nn2)cc1 | 260000
O=C(CCOCCc1c[nH]c2ccccc12)NCCCCCCNc1c2c(nc3cc(Cl)ccc13)CCCC2 | 0.7
O=C(CCc1c[nH]c2ccccc12)NCCCCCCCCCCNc1c2c(nc3cc(Cl)ccc13)CCCC2 | 21.9
NCCCCCCCCCNc1c2c(nc3ccccc13)CCCC2 | 131
c1ccc2c(NCCCCCCCCNc3c4c(nc5ccccc35)CCCC4)ccnc2c1 | 8.8
c1ccc(CN2CCC(CNc3n[nH]c4ccccc34)CC2)cc1 | 120
COc1cccc(CN2CCC(CCC(=O)c3ccc4c(c3)CCN4)CC2)c1 | 2680
O=C(c1ccncc1)N(CCC1CCN(Cc2ccccc2)CC1)c1ccccc1 | 64
CCCCCCNC(=O)Oc1cccc(CN(C)CCCOc2ccc3c(=O)ccoc3c2)c1 | 21
Fc1ccc2c(NCCCCCCCCNc3c4c(nc5cc(F)ccc35)CCCC4)c3c(nc2c1)CCCC3 | 0.7
CCCCCCNC(=O)Oc1cccc(CN(CCCOc2ccc3c(=O)c4ccccc4oc3c2)C(C)C)c1 | 170

SMILES | IC50 [nM]
CCCCCCCNC(=O)Oc1ccc2c(c1)[C@@H]1CCN(CC)[C@@H]1C2 | 381
O=C(CCc1c[nH]c2ccccc12)NCCCCCCCCNc1c2c(nc3cc(Cl)ccc13)CCCC2 | 0.5
Nc1c2c(nc3ccccc13)-c1ccccc1NCCC2 | 391000
O=C(NCCCCCCCNc1c2c(nc3cc(Cl)ccc13)CCCC2)c1n[nH]c2ccccc12 | 95
c1ccc2c(NCCCCCCCCNc3ccncc3)c3c(nc2c1)CCCC3 | 13.6
O=C1c2ccccc2CCC1CC1CCN(c2ccccc2)CC1 (centres undefined) | 2100
O=C1CNc2cc3onc(CCC4CCN(Cc5ccccc5)CC4)c3cc2C1 | 0.48
Cc1cc(-c2ccc(Cl)cc2)nnc1NCCN1CCCCC1 | 1300
O=C1c2ccc([N+](=O)[O-])cc2C(=O)N1CC1CCN(Cc2ccccc2)CC1 | 3000
O=C(CCC1CCN(Cc2ccc(Cl)cc2)CC1)c1ccc2c(c1)CCN2 | 6360
CN(C)C(=O)Oc1cccc(-c2cn3c(Cl)cccc3[n+]2C)c1 | 12600
CCCNC(=O)Oc1ccc2c(c1)C1CCN(CC)C1C2 (centres undefined) | 2190
CN(CCCNc1ccc(-c2ccccc2)nn1)Cc1ccccc1 | 13000
CNC(=O)Oc1cccc(CN(C)CCCCCCCOc2ccc3c(c2)O/C(=C\c2cccc4ccccc24)C3=O)c1 | 2.09
CC(=O)Nc1cccc2n1cc(-c1cccc(OC(=O)N(C)C)c1)[n+]2C | 2500
COc1ccc(C(=O)N(CCC2CCN(Cc3ccccc3)CC2)c2ccccc2)cc1 | 590
FC(F)(F)c1cc(-c2ccccc2)nnc1NCCN1CCOCC1 | 740000
CNC(=O)Oc1cccc(CN(C)CCCCCCCOc2ccc3c(c2)C/C(=C\c2cc(O)c(O)c(O)c2)C3=O)c1 | 1.8
c1ccc(-c2ccc(NCCCN3CCOCC3)nn2)cc1 | 410000
O=C1c2cccc([N+](=O)[O-])c2C(=O)N1CCC1CCN(Cc2ccccc2)CC1 | 9
O=C(CCC1CCN(Cc2cccc(F)c2)CC1)c1ccc2c(c1)NCCCC2 | 145
CN(CCOCCNC(=S)Nc1cccc2ccccc12)Cc1ccccc1 | 10000
Cc1cccc(CN2CCC(CCC(=O)c3ccc4c(c3)NCCCC4)CC2)c1 | 224
CCCCCCNC(=O)Oc1cccc(CN(CCC)CCCOc2ccc3c(=O)c4ccccc4oc3c2)c1 | 400

SMILES | IC50 [nM]
COc1cccc2n1cc(-c1cccc(OC(=O)N(C)C)c1)[n+]2C | 20500
Cc1cccc2n1cc(-c1ccc(OC(=O)N(C)C)cc1)[n+]2C | 1300
O=C(CCOCCc1c[nH]c2ccccc12)NCCCCCNc1c2c(nc3cc(Cl)ccc13)CCCC2 | 1.5
O=C(Cc1c[nH]c2ccc(Br)cc12)NCCCCCCCNc1c2c(nc3cc(Cl)ccc13)CCCC2 | 0.6
COc1ccccc1CN1CCC(CCC(=O)c2ccc3c(c2)NCCCC3)CC1 | 2650
COc1ccccc1CN(C)CCCN(C)CCCNCCC[n+]1c(-c2ccccc2)c2cc(N)ccc2c2ccc(N)cc21 | 894
c1ccc(NCCCCCCCCCCCCNc2c3c(nc4ccccc24)CCCC3)cc1 | 261
O=C(CCC1CCN(Cc2cccc(F)c2)CC1)c1ccc2c(c1)CCN2 | 16
O=C(CCCc1c[nH]c2ccccc12)NCCCCCNc1c2c(nc3cc(Cl)ccc13)CCCC2 | 0.3
O=C(CCC1CCN(Cc2ccccc2Cl)CC1)c1ccc2c(c1)CCN2 | 76
O=C1Cc2ccccc2C(=O)N1CCC1CCN(Cc2ccccc2)CC1 | 23
CCCCNC(=O)Oc1ccc2c(c1)[C@]1(C)CCN(CC)[C@@H]1C2 | 90
c1ccc(CN2CCC(CCN=c3[nH]nc(-c4ccccc4)c4ccccc34)CC2)cc1 | 440
O=C(CC1S/C(=N/c2ccc(C3CCCCC3)cc2)NC1=O)Nc1ccc(OC(F)(F)F)cc1 (centres undefined) | 2900
CNC(=O)Nc1cccc2n1cc(-c1ccc(OC(=O)N(C)C)cc1)[n+]2C | 1350
COc1ccc2c(c1)C(=O)N(CCC1CCN(Cc3ccccc3)CC1)C2=O | 8
CN(C)C(=O)Oc1ccc(-c2cn3c(NC(=O)c4ccccc4)cccc3[n+]2C)cc1 | 200
c1ccc(CN2CCC(CCN3CCc4ccccc4C3)CC2)cc1 | 1600
c1ccc2c(NCCCCCCCNc3ccncc3)c3c(nc2c1)CCCC3 | 12.8
CCCCCCCNC(=O)Oc1ccc2c(c1)[C@]1(C)CCN(C)[C@@H]1C2 | 114
COC(=O)Nc1ccc2n(c1)cc(-c1ccccc1)[n+]2C | 50000
O=C(CCC1CCN(Cc2ccccc2)CC1)c1ccc2c(c1)NCCCCC2 | 127
O=C(CCC1CCN(Cc2ccccc2)CC1)c1ccc2c(c1)N(Cc1ccccc1)CCCC2 | 3140
COc1ccc(/N=C/c2cn(-c3ccc(OC)cc3)cc2/C=N/c2ccc(OC)cc2)cc1 | 14000

SMILES | IC50 [nM]
c1ccc(-c2ccc(NCCN3CCc4ccccc4C3)nn2)cc1 | 83000
COc1cc2c(cc1OC)C(O)C(CC1CCN(c3ccccc3)CC1)C2 (centres undefined) | 300
O=C1Nc2ccccc2CN1CCC1CCN(Cc2ccccc2)CC1 | 13
O=C(CCC1CCN(Cc2ccccc2)CC1)c1ccc2c(c1)CCCN2c1ccccc1 | 54
CN(C)C(=O)Nc1cccc2n1cc(-c1ccc(OC(=O)N(C)C)cc1)[n+]2C | 1600
CN(CCOCCNC(=O)Nc1ccc([N+](=O)[O-])cc1)Cc1ccccc1 | 2300
CC(=O)N(CCC1CCN(Cc2ccccc2)CC1)c1ccc(F)cc1 | 205
CCN1CCCCc2ccc(C(=O)CCC3CCN(Cc4ccccc4)CC3)cc21 | 376
CCCCCN1CCc2cc(C(=O)CCC3CCN(Cc4ccccc4)CC3)ccc21 | 47
O=C(CCC1CCN(Cc2ccccc2)CC1)c1ccc2c(c1)CCCCN2 | 125
Fc1ccc(N(Cc2ccc3c(c2)OCO3)C(=S)Nc2cccc(C(F)(F)F)c2)cc1 | 8000
O=C(Nc1cccc(C2=NCCN2)c1)Nc1cccc(C2=NCCN2)c1 [IMIDOCARB] | 590
O=C(c1ccc(F)cc1)N(CCC1CCN(Cc2ccccc2)CC1)c1ccccc1 | 18
NCCCCCCCCCCCCNc1c2c(nc3ccccc13)CCCC2 | 180
CCCCCCCNC(=O)Oc1ccc2c(c1)[C@]1(C)CCN(Cc3ccccc3)[C@@H]1C2 | 506
Cc1ccc(C(=O)NC(=S)NCCOCCN(C)Cc2ccccc2)cc1 | 77
O=c1[nH]c2cc(Cl)ccc2c(=O)n1CCC1CCN(Cc2ccccc2)CC1 | 4.5
CN(C)C(=O)Oc1ccc(-c2cn3c(NC=O)cccc3[n+]2C)cc1 | 1200
CCCCCCNC(=O)Oc1ccc2c(c1)[C@@H]1CCN(CC)[C@@H]1C2 | 208
CCCN1CCc2cc(C(=O)CCC3CCN(Cc4ccccc4)CC3)ccc21 | 22
CN(CCOCCNC(=S)NC1CCCCC1)Cc1ccccc1 | 1400
COc1cc(N)c(Cl)cc1C(=O)NC1CCN(Cc2ccccc2)CC1 [CLEBOPRIDE] | 890
